According to PubChem BioAssay AID330 (DTP/NCI, 2004):
Several values for one entry are separate records, joined by “and”; a condition that tells them apart may be missing. Equal entries are not always repeated. Toxic doses and inconclusive results are not listed. How the source made its calls: active means survival T/C of 150% or more; inactive means T/C below 125% in these data.

Test system: P388 leukemia ip, CD2F1 mice, survival T/C
Assay: NCI In Vivo Anticancer Drug Screen. Data for tumor model P388 Leukemia (intraperitoneal) in CD2F1 (CDF1) mice
Conditions: endpoint: median survival time, higher = longer survival
Outline: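 Mice carrying the transplanted tumor received test compound or vehicle. Survival was recorded in each group, and the value is the treated-group measurement divided by that of the vehicle-treated control group.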

[1] = dose: 50.0 mg/kg/injection, schedule: Q01DX005 (ip), vehicle: Klucel (hydroxypropylcellulose) (HPC)
[2] = dose: 100.0 mg/kg/injection, schedule: Q01DX005 (ip), vehicle: Klucel (hydroxypropylcellulose) (HPC)
[3] = dose: 200.0 mg/kg/injection, schedule: Q01DX005 (ip), vehicle: Klucel (hydroxypropylcellulose) (HPC)
[4] = dose: 50.0 mg/kg/injection, schedule: Q01DX009 (ip), vehicle: saline with Tween-80
[5] = dose: 100.0 mg/kg/injection, schedule: Q01DX009 (ip), vehicle: saline with Tween-80
[6] = dose: 200.0 mg/kg/injection, schedule: Q01DX009 (ip), vehicle: saline with Tween-80
[7] = dose: 50.0 mg/kg/injection, schedule: Q01DX005 (ip), vehicle: saline with Tween-80
[8] = dose: 100.0 mg/kg/injection, schedule: Q01DX005 (ip), vehicle: saline with Tween-80
[9] = dose: 200.0 mg/kg/injection, schedule: Q01DX005 (ip), vehicle: saline with Tween-80

Measured: T/C

C[CH2][Pb]([CH2]C)([CH2]C)[O]C(=O)CBr
inactive: dose: 2.0 mg/kg/injection, schedule: Q01DX009 (ip), vehicle: saline 111 % of control | dose: 3.0 mg/kg/injection, schedule: Q01DX009 (ip), vehicle: saline 117 % of control | dose: 4.5 mg/kg/injection, schedule: Q01DX009 (ip), vehicle: saline 119 % of control

Oc1ccc(C2c3ccccc3Oc3ccccc32)c2cccnc12
inactive: [1] 89 % of control | [2] 89 % of control | [3] 86 % of control

O=C(Nc1ccccc1Br)c1cccc([N+](=O)[O-])c1O
inactive: [4] 107 % of control | [5] 98 % of control | [6] 97 % of control

O=C(NN=C1CCCCC1)C(=O)Nc1cccc(C(F)(F)F)c1
inactive: [1] 97 % of control | [2] 92 % of control | [3] 88 % of control

COc1ccc2ccccc2c1C1=CC(c2ccccc2)C(C(=O)Cc2ccccc2)C(=O)N1 (configuration not stated)
inactive: dose: 100.0 mg/kg/injection, schedule: Q04DX003 (ip), vehicle: saline with Tween-80 101 % of control | dose: 200.0 mg/kg/injection, schedule: Q04DX003 (ip), vehicle: saline with Tween-80 92 % of control | dose: 400.0 mg/kg/injection, schedule: Q04DX003 (ip), vehicle: saline with Tween-80 101 % of control

CC1NCCc2c1[nH]c1ccccc21 (configuration not stated)
inactive: dose: 12.5 mg/kg/injection, schedule: Q01DX005 (ip), vehicle: Klucel (hydroxypropylcellulose) (HPC) 101 % of control | dose: 25.0 mg/kg/injection, schedule: Q01DX005 (ip), vehicle: Klucel (hydroxypropylcellulose) (HPC) 97 % of control | [1] 101 % of control and 97 % of control

CC1(C)CC(C)(C)C2(OC3=C([Se]2)C(C)(C)CC(C)(C)C3=O)C(=O)C1=O (configuration not stated)
inactive: [4] 100 % of control | [5] 118 % of control | [6] 117 % of control

CC1(c2ccccc2)c2ccccc2N(c2ccccc2)C(=O)C1O (configuration not stated)
inactive: dose: 100.0 mg/kg/injection, schedule: Q04DX003 (ip), vehicle: Klucel (hydroxypropylcellulose) (HPC) 101 % of control and 109 % of control | dose: 200.0 mg/kg/injection, schedule: Q04DX003 (ip), vehicle: Klucel (hydroxypropylcellulose) (HPC) 100 % of control and 107 % of control | dose: 400.0 mg/kg/injection, schedule: Q04DX003 (ip), vehicle: Klucel (hydroxypropylcellulose) (HPC) 100 % of control and 109 % of control

O=C(Nc1ccc(Cl)cc1)/C(Cl)=C1/Sc2ccccc2NC1=O
inactive: dose: 100.0 mg/kg/injection, schedule: Q01DX001 (ip), vehicle: saline with Tween-80 97 % of control | dose: 200.0 mg/kg/injection, schedule: Q01DX001 (ip), vehicle: saline with Tween-80 91 % of control | dose: 400.0 mg/kg/injection, schedule: Q01DX001 (ip), vehicle: saline with Tween-80 91 % of control

COc1ccc(N/C=C2\C(=O)CCc3c2oc2cc(Cl)c(O)c(Cl)c32)cc1
inactive: dose: 15.0 mg/kg/injection, schedule: Q01DX005 (ip), vehicle: Klucel (hydroxypropylcellulose) (HPC) 93 % of control | dose: 30.0 mg/kg/injection, schedule: Q01DX005 (ip), vehicle: Klucel (hydroxypropylcellulose) (HPC) 99 % of control | dose: 60.0 mg/kg/injection, schedule: Q01DX005 (ip), vehicle: Klucel (hydroxypropylcellulose) (HPC) 107 % of control and 93 % of control | dose: 120.0 mg/kg/injection, schedule: Q01DX005 (ip), vehicle: Klucel (hydroxypropylcellulose) (HPC) 102 % of control

O=c1c2cc(O)ccc2sc2c(CO)ccc(NCCN3CCCC3)c12
inactive: dose: 19.25 mg/kg/injection, schedule: Q01DX005 (ip), vehicle: Klucel (hydroxypropylcellulose) (HPC) 101 % of control | dose: 38.5 mg/kg/injection, schedule: Q01DX005 (ip), vehicle: Klucel (hydroxypropylcellulose) (HPC) 100 % of control | dose: 77.0 mg/kg/injection, schedule: Q01DX005 (ip), vehicle: Klucel (hydroxypropylcellulose) (HPC) 106 % of control | dose: 154.0 mg/kg/injection, schedule: Q01DX005 (ip), vehicle: Klucel (hydroxypropylcellulose) (HPC) 109 % of control

CC(=O)O[C@@H]1C(=O)[C@]2(CO)C(C(OC(=O)c3ccccc3)C3(O)CC(O)C(C)=C1C3(C)C)[C@@]1(OC(C)=O)CO[C@H]1C[C@H]2O (some centres not stated)
inactive: dose: 0.26 mg/kg/injection, schedule: Q01DX009 (ip), vehicle: distilled water + alcohol 108 % of control | dose: 0.53 mg/kg/injection, schedule: Q01DX009 (ip), vehicle: distilled water + alcohol 106 % of control | dose: 1.07 mg/kg/injection, schedule: Q01DX009 (ip), vehicle: distilled water + alcohol 106 % of control | dose: 2.15 mg/kg/injection, schedule: Q01DX009 (ip), vehicle: distilled water + alcohol 105 % of control | dose: 4.3 mg/kg/injection, schedule: Q01DX009 (ip), vehicle: distilled water + alcohol 108 % of control

CNc1nc(Cl)cc2onc(C)c12
inactive: dose: 60.0 mg/kg/injection, schedule: Q01DX005 (ip), vehicle: saline with Tween-80 94 % of control | dose: 120.0 mg/kg/injection, schedule: Q01DX005 (ip), vehicle: saline with Tween-80 100 % of control | dose: 240.0 mg/kg/injection, schedule: Q01DX005 (ip), vehicle: saline with Tween-80 103 % of control

O=C1c2ccccc2-c2nsc3c(C(Br)Br)ccc1c23
inactive: [1] 99 % of control | [2] 87 % of control | [3] 91 % of control

CC1=C(C)C(=O)OC(C(C)(O)C2(O)CC=C3C4CC(O)C5(O)C(O)C=CC(=O)C5(C)C4CCC32C)C1 (configuration not stated)
inactive: dose: 7.75 mg/kg/injection, schedule: Q01DX005 (ip), vehicle: Klucel (hydroxypropylcellulose) (HPC) 105 % of control | dose: 15.5 mg/kg/injection, schedule: Q01DX005 (ip), vehicle: Klucel (hydroxypropylcellulose) (HPC) 105 % of control | dose: 31.0 mg/kg/injection, schedule: Q01DX005 (ip), vehicle: Klucel (hydroxypropylcellulose) (HPC) 106 % of control

COC1(OC)CC=COC1(OC)OC
inactive: dose: 60.0 mg/kg/injection, schedule: Q01DX005 (ip), vehicle: saline 103 % of control | dose: 120.0 mg/kg/injection, schedule: Q01DX005 (ip), vehicle: saline 105 % of control | dose: 240.0 mg/kg/injection, schedule: Q01DX005 (ip), vehicle: saline 114 % of control

O=C(c1cccc2c1Oc1ccccc1S2)c1cccc2c1Oc1ccccc1S2
inactive: [7] 113 % of control | [8] 103 % of control | [9] 103 % of control

COc1ccc(N(C)C(=O)c2ccccc2S(=O)(=O)c2ccccc2C(=O)N(C)c2ccc(OC)cc2)cc1
inactive: [7] 104 % of control | [8] 98 % of control | [9] 100 % of control

CCOC1CSc2ccccc2C(c2ccccc2)=N1 (configuration not stated)
inactive: dose: 50.0 mg/kg/injection, schedule: Q01DX005 (ip), vehicle: Klucel + Tween-80 107 % of control | dose: 100.0 mg/kg/injection, schedule: Q01DX005 (ip), vehicle: Klucel + Tween-80 93 % of control | dose: 200.0 mg/kg/injection, schedule: Q01DX005 (ip), vehicle: Klucel + Tween-80 89 % of control

CCOC(=O)Nc1ccc2nc(-c3cscn3)[nH]c2c1
inactive: dose: 50.0 mg/kg/injection, schedule: Q01DX009 (ip), vehicle: saline 101 % of control | dose: 100.0 mg/kg/injection, schedule: Q01DX009 (ip), vehicle: saline 112 % of control | dose: 200.0 mg/kg/injection, schedule: Q01DX009 (ip), vehicle: saline 115 % of control

Cc1ccc(OC(=O)c2ccc3ccccc3n2)cc1
inactive: dose: 100.0 mg/kg/injection, schedule: Q04DX002 (ip), vehicle: saline with Tween-80 101 % of control | dose: 200.0 mg/kg/injection, schedule: Q04DX002 (ip), vehicle: saline with Tween-80 94 % of control | dose: 400.0 mg/kg/injection, schedule: Q04DX002 (ip), vehicle: saline with Tween-80 94 % of control
